Laboratory results: patent US11136296B2, “Substituted N-arylethyl-2-arylquinoline-4-carboxamides and use thereof” (Bayer Aktiengesellschaft, priority 2017, dated 2021)

Molecular target: FP receptor (Homo sapiens (Human), UniProt P43088)
Test: In vitro test of inhibition of human FP receptor activity (PGF2α-induced calcium flux in FP-expressing CHEM1 cells)
Assay type: cell-based
Details: PGF2α-induced (2 nM) calcium flux in FP-expressing CHEM1 cells; some as mean values from multiple determinations
From the text: Table 1 below lists the IC50 values from this assay for individual working examples of the invention (some as mean values from multiple independent individual determinations): […]

Chain of FP receptor (P43088 whole entry): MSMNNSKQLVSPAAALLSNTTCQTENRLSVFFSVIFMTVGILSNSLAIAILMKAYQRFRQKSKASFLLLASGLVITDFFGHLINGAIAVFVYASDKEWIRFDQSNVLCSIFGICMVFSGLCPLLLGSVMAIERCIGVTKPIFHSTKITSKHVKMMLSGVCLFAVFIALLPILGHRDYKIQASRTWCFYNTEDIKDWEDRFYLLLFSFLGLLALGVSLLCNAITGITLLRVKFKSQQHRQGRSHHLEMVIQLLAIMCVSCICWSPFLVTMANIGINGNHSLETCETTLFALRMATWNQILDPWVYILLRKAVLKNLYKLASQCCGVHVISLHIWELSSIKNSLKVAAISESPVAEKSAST

| SMILES | IC50 |
| --- | --- |
| Cc1c(-c2ccccc2)nc2ccc(Br)cc2c1C(=O)NCC(C(=O)O)c1ccccc1 (racemic) [Example 1, (+/−)-3-{[(6-Bromo-3-methyl-2-phenylquinolin-4-yl)carbonyl]amino}-2-phenylpropanoic Acid] | 130 nM |
| Cc1c(-c2ccccc2)nc2ccc(Br)cc2c1C(=O)NCC(C(=O)O)c1ccc(F)cc1 (racemic) [Example 10, (+/−)-3-{[(6-Bromo-3-methyl-2-phenylquinolin-4-yl)carbonyl]amino}-2-(4-fluorophenyl)propanoic Acid] | 320 nM |
| Cc1c(-c2ccccc2)nc2ccc(Br)cc2c1C(=O)NCC(C)(C(=O)O)c1ccccc1 (racemic) [Example 13, (+/−)-3-{[(6-Bromo-3-methyl-2-phenylquinolin-4-yl)carbonyl]amino}-2-methyl-2-phenylpropanoic Acid] | 94 nM |
| CCC(CNC(=O)c1c(C)c(-c2ccccc2)nc2ccc(Br)cc12)(C(=O)O)c1ccccc1 (racemic) [Example 16, (+/−)-2-({[(6-Bromo-3-methyl-2-phenylquinolin-4-yl)carbonyl]amino}methyl)-2-phenylbutanoic Acid] | 170 nM |
| Cc1c(-c2ccccc2)nc2ccc(Br)cc2c1C(=O)NCC(O)(C(=O)O)c1ccccc1 (racemic) [Example 19, (+/−)-3-{[(6-Bromo-3-methyl-2-phenylquinolin-4-yl)carbonyl]amino}-2-hydroxy-2-phenylpropanoic Acid] | 150 nM |
| Cc1c(-c2ccccc2)nc2ccc(Br)cc2c1C(=O)NCC(C(=O)O)c1ccc2c(c1)OCO2 (racemic) [Example 23, (+/−)-2-(1,3-Benzodioxol-5-yl)-3-{[(6-bromo-3-methyl-2-phenylquinolin-4-yl)carbonyl]amino}propanoic Acid] | 530 nM |
| Cc1c(-c2ccccc2)nc2ccc(Br)cc2c1C(=O)NCC(C)(C(=O)O)c1ccccc1F (racemic) [Example 29, (+/−)-3-{[(6-Bromo-3-methyl-2-phenylquinolin-4-yl)carbonyl]amino}-2-(2-fluorophenyl)-2-methylpropanoic Acid] | 140 nM |
| Cc1c(-c2ccccc2)nc2ccc(Br)cc2c1C(=O)NCC(C)(C(=O)O)c1c(F)cccc1F (racemic) [Example 32, (+/−)-3-{[(6-Bromo-3-methyl-2-phenylquinolin-4-yl)carbonyl]amino}-2-(2,6-difluorophenyl)-2-methylpropanoic Acid] | 150 nM |
| Cc1c(-c2ccccc2)nc2ccc(Br)cc2c1C(=O)NCC(C)(C(=O)O)c1ccccc1Cl (racemic) [Example 35, (+/−)-3-{[(6-Bromo-3-methyl-2-phenylquinolin-4-yl)carbonyl]amino}-2-(2-chlorophenyl)-2-methylpropanoic Acid] | 190 nM |
| Cc1c(-c2ccccc2)nc2ccc(Br)cc2c1C(=O)NCC(C)(C(=O)O)c1cccc(C(F)(F)F)c1 (racemic) [Example 41, (+/−)-3-{[(6-Bromo-3-methyl-2-phenylquinolin-4-yl)carbonyl]amino}-2-methyl-2-[3-(trifluoromethyl)phenyl]propanoic Acid] | 130 nM |
| COc1cccc(C(CNC(=O)c2c(C)c(-c3ccccc3)nc3ccc(Br)cc23)C(=O)O)c1 (racemic) [Example 44, (+/−)-3-{[(6-Bromo-3-methyl-2-phenylquinolin-4-yl)carbonyl]amino}-2-(3-methoxyphenyl)propanoic Acid] | 190 nM |
| COc1ccccc1C(O)(CNC(=O)c1c(C)c(-c2ccccc2)nc2ccc(Br)cc12)C(=O)O (racemic) [Example 53, (+/−)-3-{[(6-Bromo-3-methyl-2-phenylquinolin-4-yl)carbonyl]amino}-2-hydroxy-2-(2-methoxyphenyl)propanoic Acid] | 180 nM |
| Cc1c(-c2ccccc2)nc2ccc(Br)cc2c1C(=O)NCC(CC(=O)O)c1ccccc1 (racemic) [Example 63, (+/−)-4-{[(6-Bromo-3-methyl-2-phenylquinolin-4-yl)carbonyl]amino}-3-phenylbutanoic Acid] | 340 nM |
| Cc1c(-c2ccccc2)nc2ccc(Br)cc2c1C(=O)NCC(CC(=O)O)c1ccc(Cl)cc1 (racemic) [Example 66, (+/−)-4-{[(6-Bromo-3-methyl-2-phenylquinolin-4-yl)carbonyl]amino}-3-(4-chlorophenyl)butanoic Acid] | 500 nM |
| Cc1c(-c2ccccc2)nc2ccc(Br)cc2c1C(=O)NCC(CC(=O)O)c1c(Cl)cccc1Cl (racemic) [Example 78, (+/−)-4-{[(6-Bromo-3-methyl-2-phenylquinolin-4-yl)carbonyl]amino}-3-(2,6-dichlorophenyl)butanoic Acid] | 100 nM |
| Cc1ccc(C(CNC(=O)c2c(C)c(-c3ccccc3)nc3ccc(Br)cc23)CC(=O)O)cc1 (racemic) [Example 90, (+/−)-4-{[(6-Bromo-3-methyl-2-phenylquinolin-4-yl)carbonyl]amino}-3-(4-methylphenyl)butanoic Acid] | 470 nM |
| Cc1c(-c2ccccc2)nc2ccc(Br)cc2c1C(=O)NCC(CC(=O)O)c1ccccn1 (racemic) [Example 102, (+/−)-4-{[(6-Bromo-3-methyl-2-phenylquinolin-4-yl)carbonyl]amino}-3-(pyridin-2-yl)butanoic Acid] | 460 nM |
| Cc1c(-c2ccccc2)nc2ccc(Br)cc2c1C(=O)NCC(CC(=O)O)c1ccccc1C(F)(F)F (racemic) [Example 105, (+/−)-4-{[(6-Bromo-3-methyl-2-phenylquinolin-4-yl)carbonyl]amino}-3-[2-(trifluoromethyl)phenyl]butanoic Acid] | 92 nM |

Stronger by IC50, values ahead:

| IC50 | SMILES |
| --- | --- |
| 24 nM | COc1ccccc1C(CNC(=O)c1c(C)c(-c2ccccc2)nc2ccc(Br)cc12)C(=O)O (racemic) [Example 7, (+/−)-3-{[(6-Bromo-3-methyl-2-phenylquinolin-4-yl)carbonyl]amino}-2-(2-methoxyphenyl)propanoic Acid] |
| 76 nM | Cc1c(-c2ccccc2)nc2ccc(Br)cc2c1C(=O)NCC(C(=O)O)c1cccc(C(F)(F)F)c1 (racemic) [Example 22, (+/−)-3-{[(6-Bromo-3-methyl-2-phenylquinolin-4-yl)carbonyl]amino}-2-[3-(trifluoromethyl)phenyl]propanoic Acid] |
| 44 nM | Cc1c(-c2ccccc2)nc2ccc(Br)cc2c1C(=O)NCC(C)(C(=O)O)c1ncccc1Cl (racemic) [Example 26, (+/−)-3-{[(6-Bromo-3-methyl-2-phenylquinolin-4-yl)carbonyl]amino}-2-(3-chloropyridin-2-yl)-2-methylpropanoic Acid] |
| 47 nM | Cc1c(-c2ccccc2)nc2ccc(Br)cc2c1C(=O)NCC(F)(C(=O)O)c1ccccc1 (racemic) [Example 38, (+/−)-3-{[(6-Bromo-3-methyl-2-phenylquinolin-4-yl)carbonyl]amino}-2-fluoro-2-phenylpropanoic Acid] |
| 43 nM | Cc1c(-c2ccccc2)nc2ccc(Br)cc2c1C(=O)NCC(C(=O)O)c1cccc(Cl)c1 (racemic) [Example 47, (+/−)-3-{[(6-Bromo-3-methyl-2-phenylquinolin-4-yl)carbonyl]amino}-2-(3-chlorophenyl)propanoic Acid] |
| 79 nM | Cc1cccc(C(CNC(=O)c2c(C)c(-c3ccccc3)nc3ccc(Br)cc23)C(=O)O)c1 (racemic) [Example 50, (+/−)-3-{[(6-Bromo-3-methyl-2-phenylquinolin-4-yl)carbonyl]amino}-2-(3-methylphenyl)propanoic Acid] |
| 21 nM | COc1cccc(F)c1C(CNC(=O)c1c(C)c(-c2ccccc2)nc2ccc(Br)cc12)C(=O)O (racemic) [Example 56, (+/−)-3-{[(6-Bromo-3-methyl-2-phenylquinolin-4-yl)carbonyl]amino}-2-(2-fluoro-6-methoxyphenyl)propanoic Acid] |
| 45 nM | Cc1c(-c2ccccc2)nc2ccc(Br)cc2c1C(=O)NCC(CC(=O)O)c1cccc(Cl)c1 (racemic) [Example 72, (+/−)-4-{[(6-Bromo-3-methyl-2-phenylquinolin-4-yl)carbonyl]amino}-3-(3-chlorophenyl)butanoic Acid] |
| 69 nM | Cc1ccccc1C(CNC(=O)c1c(C)c(-c2ccccc2)nc2ccc(Br)cc12)CC(=O)O (racemic) [Example 75, (+/−)-4-{[(6-Bromo-3-methyl-2-phenylquinolin-4-yl)carbonyl]amino}-3-(2-methylphenyl)butanoic Acid] |
| 16 nM | Cc1c(-c2ccccc2)nc2ccc(Br)cc2c1C(=O)NCC(C)(CC(=O)O)c1ncccc1Cl (racemic) [Example 84, (+/−)-4-{[(6-Bromo-3-methyl-2-phenylquinolin-4-yl)carbonyl]amino}-3-(3-chloropyridin-2-yl)-3-methylbutanoic Acid] |
| 23 nM | Cc1c(-c2ccccc2)nc2ccc(Br)cc2c1C(=O)NCC(CC(=O)O)c1c(F)cccc1Cl (racemic) [Example 87, (+/−)-4-{[(6-Bromo-3-methyl-2-phenylquinolin-4-yl)carbonyl]amino}-3-(2-chloro-6-fluorophenyl)butanoic Acid] |
| 80 nM | Cc1cccc(C(CNC(=O)c2c(C)c(-c3ccccc3)nc3ccc(Br)cc23)CC(=O)O)c1 (racemic) [Example 93, (+/−)-4-{[(6-Bromo-3-methyl-2-phenylquinolin-4-yl)carbonyl]amino}-3-(3-methylphenyl)butanoic Acid] |
| 28 nM | Cc1c(-c2ccccc2)nc2ccc(Br)cc2c1C(=O)NCC(CC(=O)O)c1ccccc1OC(F)(F)F (racemic) [Example 99, (+/−)-4-{[(6-Bromo-3-methyl-2-phenylquinolin-4-yl)carbonyl]amino}-3-[2-(trifluoromethoxy)phenyl]butanoic Acid] |
| 78 nM | COc1cccnc1C(CNC(=O)c1c(C)c(-c2ccccc2)nc2ccc(Br)cc12)CC(=O)O (racemic) [Example 108, (+/−)-4-{[(6-Bromo-3-methyl-2-phenylquinolin-4-yl)carbonyl]amino}-3-(3-methoxypyridin-2-yl)butanoic Acid] |
| 89 nM | Cc1c(-c2ccccc2)nc2ccc(Br)cc2c1C(=O)NCC(c1ccccc1Cl)C(C)(C)C(=O)O (racemic) [Example 111, (+/−)-4-{[(6-Bromo-3-methyl-2-phenylquinolin-4-yl)carbonyl]amino}-3-(2-chlorophenyl)-2,2-dimethylbutanoic Acid] |
